Test results published in article PMC8258697 (The Journal of Biological Chemistry, 2021).

Target: T1, PPARγ LBD (Homo sapiens, UniProt P37231)
T1 construct: MBP-Asn10-His8-TEV site (N, cleaved yes); made in house; host or cells: E. coli T7 express (co-expressed with GroEL/ES)
T1 sequence (P37231 1-505): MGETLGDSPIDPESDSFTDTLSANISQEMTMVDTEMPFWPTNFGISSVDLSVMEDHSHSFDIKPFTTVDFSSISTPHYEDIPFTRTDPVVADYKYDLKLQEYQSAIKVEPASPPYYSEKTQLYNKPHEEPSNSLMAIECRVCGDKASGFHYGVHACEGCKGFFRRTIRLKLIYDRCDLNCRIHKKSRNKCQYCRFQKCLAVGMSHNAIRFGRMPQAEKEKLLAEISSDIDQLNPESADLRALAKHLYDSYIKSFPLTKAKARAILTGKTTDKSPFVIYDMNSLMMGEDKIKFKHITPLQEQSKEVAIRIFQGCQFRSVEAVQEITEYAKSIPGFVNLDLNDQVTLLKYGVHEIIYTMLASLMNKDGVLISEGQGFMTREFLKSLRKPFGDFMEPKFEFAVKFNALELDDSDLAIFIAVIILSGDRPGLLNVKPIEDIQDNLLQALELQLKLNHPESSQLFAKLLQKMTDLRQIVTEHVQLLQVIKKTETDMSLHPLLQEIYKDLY
Experiment: Two-dimensional titration of SR11237 and unlabeled mutant RXRα LBD: CBP-1 recruitment by sGFP-PPARγ LBD (HTRF)
Format: biochemical
Settings: combined addition of SR11237 and RXRα at concentrations equal to PPARγ (100 nM) and higher

CC1(C)CCC(C)(C)c2cc(C3(c4ccc(C(=O)O)cc4)OCCO3)ccc21 [SR11237]
CBP-1 recruitment relative to full activation of monomeric PPARγ with rosiglitazone: up to 26%
